# Reference: US20110071178A1, “Methods and Compounds for Modulating Cannabinoid Activity” (Northeastern University, priority 2007, published 2011)
# Columns and labels:
# MGL = target: T1, MGL (Rattus norvegicus, UniProt Q8R431); conditions: 100 µM
# T1 sequence (Q8R431 1-303): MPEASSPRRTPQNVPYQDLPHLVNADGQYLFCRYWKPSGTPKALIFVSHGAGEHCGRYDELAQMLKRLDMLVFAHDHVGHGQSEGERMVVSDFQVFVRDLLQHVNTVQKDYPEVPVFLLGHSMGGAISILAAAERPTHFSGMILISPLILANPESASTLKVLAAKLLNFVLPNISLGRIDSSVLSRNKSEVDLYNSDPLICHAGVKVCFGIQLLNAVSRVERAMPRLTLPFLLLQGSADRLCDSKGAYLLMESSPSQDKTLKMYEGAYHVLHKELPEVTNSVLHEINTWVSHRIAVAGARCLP
# Experimental: The percentage of inhibition describes the percentage by which the inhibitor reduces the velocity/rate of 2-AG hydrolysis by MGL. […] The Ki value is the affinity constant and describes the affinity of the inhibitor for the MGL.
# These rat brains are homogenized in 5 volumes of ice-cold buffer (0.32 M sucrose, 10 mM Tris base, 5 mM EDTA, pH 7.4) then centrifuged at 17400 g for 30 min. The supernatant was further centrifuged at 124,000 g for 90 min. The supernatant from the last certifugation step (cytosol fraction) is resuspended in TME buffer (25 mM Tris base, 5 mM MgCl2, 1 mM EDTA, pH 7.4) for the MGL preparation. Aliquots (1 ml) from the preparation are flash frozen in liquid nitrogen and stored at −80° C. until used. Protein concentration of the enzyme suspension is determined using the BioRad protein assay kit. […]
# Again the reaction mixture is treated in the same manner as described above and the concentrations of 2-AG and AA are calculated using external standards. Percent inhibition is calculated using the following equation: […]
# where (AA20−AA0)c is the amount of arachidonic acid formed over 20 min from 2-AG with the inhibitor present and (AA20−AA0)s is the amount of arachidonic acid formed over 20 min from 2-AG when the inhibitor is not present. […] The reaction mixtures are treated as described above and the amount of AA formed was calculated. […]
structure (smiles),measurement,setting,value
"O=S(=O)(Cl)CCCCCCCc1ccc(OCc2ccccc2)cc1 [Compound 12.1, 7-(4-Benzyloxy-phenyl)-heptanesulfonyl chloride]",melting point,,33 to 35 °C
"O=S(=O)(Cl)CCCCCc1ccc(OCc2ccccc2)cc1 [Compound 12.4, 5-(4-Benzyloxy-phenyl)-pentanesulfonyl chloride]",melting point,,58 to 60 °C
"O=S(=O)(F)CCCCCc1ccc(O)cc1 [Compound 14.4, 5-(4-Hydroxy-phenyl)-pentanesulfonyl fluoride]",melting point,,32 to 35 °C
CCOC(=O)NCc1ccc(Br)cc1 [Compound 57.1],inhibition,MGL,44%
